Experimental data reported in US11873298B2, “Compounds and uses thereof” (JANSSEN PHARMACEUTICA NV, priority 2017, dated 2024).
Several values for one entry are separate records, joined by “and”; a condition that tells them apart may be missing. Identical values can stand only once.

What was measured:
SCD1 = molecular target: T1, SCD1 (Homo sapiens, UniProt O00767); assay: Growth inhibition of humanized yeast strain expressing SCD1 as sole desaturase; assay type: cell-based; details: humanized yeast strain expressing SCD1
T1 construct: host or cells: S. cerevisiae ole1Δ strain (W303 pdr1Δ pdr3Δ background), plasmid pRS316 with TDH3 promoter and CYC1 terminator
T1 sequence (O00767 1-359): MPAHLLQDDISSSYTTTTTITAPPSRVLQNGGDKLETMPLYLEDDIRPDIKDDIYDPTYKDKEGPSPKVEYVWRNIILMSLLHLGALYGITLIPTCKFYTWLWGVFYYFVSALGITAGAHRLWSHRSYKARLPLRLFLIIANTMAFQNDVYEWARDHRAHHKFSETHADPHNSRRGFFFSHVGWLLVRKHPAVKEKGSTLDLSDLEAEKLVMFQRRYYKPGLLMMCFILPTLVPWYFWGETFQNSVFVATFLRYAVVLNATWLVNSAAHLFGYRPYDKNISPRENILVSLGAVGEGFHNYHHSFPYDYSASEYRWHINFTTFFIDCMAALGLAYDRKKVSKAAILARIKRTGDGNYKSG
In short: (§1)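 Measured by optical density at 600 nm, growth of desaturase-dependent yeast (OLE1 deleted; human SCD1, human SCD5 or yeast Ole1 supplied from plasmid) was scored after 24 h (Ole1) or 40 h (SCD1, SCD5) at 30° C. in galactose media lacking uracil with DMSO-delivered compound.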

SCD5 = molecular target: T2, SCD5 (Homo sapiens, UniProt Q86SK9); assay: Growth inhibition of humanized yeast strain expressing SCD5 as sole desaturase; assay type: cell-based; details: humanized yeast strain expressing SCD5
T2 construct: host or cells: S. cerevisiae ole1Δ strain (W303 pdr1Δ pdr3Δ background), plasmid pRS316 with TDH3 promoter and CYC1 terminator
T2 sequence (Q86SK9 1-330): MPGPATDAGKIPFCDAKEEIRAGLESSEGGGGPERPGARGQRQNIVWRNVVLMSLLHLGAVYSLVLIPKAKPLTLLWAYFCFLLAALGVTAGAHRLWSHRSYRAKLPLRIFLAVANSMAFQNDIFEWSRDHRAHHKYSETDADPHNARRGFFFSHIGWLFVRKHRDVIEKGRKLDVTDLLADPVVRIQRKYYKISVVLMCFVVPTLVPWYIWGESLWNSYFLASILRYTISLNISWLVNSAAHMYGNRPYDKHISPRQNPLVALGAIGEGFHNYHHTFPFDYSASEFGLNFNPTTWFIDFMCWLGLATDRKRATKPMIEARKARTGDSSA
In short: as §1

Ole1 = molecular target: T3, Ole1 (Saccharomyces cerevisiae, UniProt P21147); assay: Growth inhibition of yeast strain expressing Ole1 as sole desaturase; assay type: cell-based; details: yeast strain expressing Ole1 as sole desaturase
T3 construct: expressed in transfected cells; host or cells: S. cerevisiae ole1Δ strain (W303 pdr1Δ pdr3Δ background), plasmid pRS316 with TDH3 promoter and CYC1 terminator
T3 sequence (P21147 1-510): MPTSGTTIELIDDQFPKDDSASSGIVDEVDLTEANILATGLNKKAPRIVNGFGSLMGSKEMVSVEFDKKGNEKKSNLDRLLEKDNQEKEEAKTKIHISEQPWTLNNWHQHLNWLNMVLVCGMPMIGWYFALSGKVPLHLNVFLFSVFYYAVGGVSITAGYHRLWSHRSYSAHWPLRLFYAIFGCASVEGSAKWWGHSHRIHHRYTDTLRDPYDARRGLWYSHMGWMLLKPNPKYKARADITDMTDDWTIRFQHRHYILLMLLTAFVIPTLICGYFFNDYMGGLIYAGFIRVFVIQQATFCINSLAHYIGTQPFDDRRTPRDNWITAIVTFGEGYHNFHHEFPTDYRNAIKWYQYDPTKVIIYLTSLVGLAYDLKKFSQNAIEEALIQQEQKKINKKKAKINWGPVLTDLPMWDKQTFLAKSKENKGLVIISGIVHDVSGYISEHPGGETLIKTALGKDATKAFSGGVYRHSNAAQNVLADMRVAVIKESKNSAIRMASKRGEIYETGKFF
In short: as §1

[1] = tested on: yeast strains expressing the human α-synuclein; assay: Yeast α-synuclein toxicity rescue assay (OD600 growth); details: 40 h; for EC50: read-out: α-Syn EC50; for Emax: read-out: α-Syn Emax
Source text: The induced expression of α-synuclein and ApoE4 confers cytotoxicity, thus enabling the identification of compounds that can restore cell viability. This instantaneous/synchronous induction of α-synuclein and ApoE4 can be achieved due to the following expression control. In glucose-containing media, gene expression from the GAL1 promoter is ‘off’ and actively repressed by additional epigenetic factors. In raffinose, expression is ‘off’, but the promoter not actively repressed. Upon transition to galactose-containing media, the promoter is instantaneously turned ‘on’ to achieve robust and synchronous induction of α-synuclein or ApoE4 expression. This highly regulated induction provides a robust window for the determination of both efficacy (amplitude of protective effect) and potency (concentration of protective effect) of cytoprotective compounds.
Re-suspended compound stocks were subsequently arrayed into 384 well compound plates using automated pipetting. All other wells not receiving stock compound were filled with 10 μL of 100% DMSO using an automated plate filler (Multidrop Combi). An 11 point, 2-fold serial dilution was then performed using the robotic platform. Compound assay plates were covered with foil and stored at −20° C. until use.
Each strain was handled according to standard protocols and cultured in media composed of CSM (complete synthetic media), YNB (yeast nitrogenous base), and a 2% (w/v) carbon source (either glucose, raffinose, or galactose).
In a standard yeast assay, a single-use aliquot of cells was thawed on ice and diluted into CSM/glucose (5 mL). Cultures were grown for 8 hours at 30° C. This pre-growth enables the yeast to exit the thaw and begin to grow without expressing aSyn or ApoE4. After 8 hours, cell density (OD600) was determined and cultures diluted to an OD600 of 0.01 in CSM/raffinose for an overnight culture phase at 30° C. During this period, the active glucose repression of the GAL1 promoter was relieved; however, expression of the α-Syn/ApoE4 genes were not yet induced. After ˜16 hours of growth, cultures attain an OD600 of 0.4-0.8 and were ready to apply to assay plates containing compound.
Compound profiling assays were executed in clear-bottom 384 well plates. First, compound plates were thawed at room temperature for 45′, centrifuged at 1,000×g for 1 minute, and the foil removed. Clear 384 well assay plates were then filled with 15 μL of CSM/galactose. […] The pin tool was washed iteratively with both 50% DMSO and 100% ethanol between each assay plate. After delivering compound to each assay plate, the overnight CSM/raffinose aSyn or ApoE4 cultures were added at a 2X cell density (0.04 for aSyn and 0.08 for ApoE4) in CSM/galactose to achieve a final assay OD600 of 0.02 and 0.04 for aSyn and ApoE, respectively. The cultures (15 μL per well) were then dispensed to the compound -containing 384 well assay plates using an automated plate filler. Plates were incubated in a humidified 30° C. incubator for 40 or 24 hours for aSyn and ApoE4, respectively. The ODsoo of each assay plate was then read with a microplate reader (e.g., Perkin Elmer Envision).
The efficacy and potency of compounds were calculated according to the following. Raw data (OD600 values) were first background corrected to account for OD600 contributed by the plate and media itself. The efficacy (percent above DMSO, herein referred to as “Emax”) was calculated according to the equation: (Experimental well−DMSO control well)/(DMSO control well)*100. […] Normalized dose-response data was fit with a logistic regression curve using Spotfire (TIBCO), or similar curve-fitting software package. EC50 values were then reported along with EMax to provide both efficacy and potency measures for each analog and enable further compound design.

Compound | IC50 (SCD1) [µM] | IC50 (SCD5) [µM] | IC50 (Ole1) [µM] | EC50 [1] [µM] | Emax [1] [%] | SCD1 % Max Inhibition (SCD1) [%] | SCD5 % Max Inhibition (SCD5) | OLE1 % Max Inhibition (Ole1)
CCOc1ccc(-c2noc(C3CCN(C(=O)CNC(=O)c4ccccc4)CC3)n2)cc1C#N [compound 101] | > 45 | > 45 | > 45 | 1.18 | 122 | – | – | –
O=C(NCC(=O)N1CCC(c2nc(-c3ccc4c(c3)OC(F)(F)O4)no2)CC1)c1ccccc1 [Compound 109] | > 45 | > 45 | > 45 | 3.04 | 35 | 84.36 | 89.75% | 87.87%
O=C(NCC(=O)N1CCC(c2nc(-c3ccc4nsnc4c3)no2)CC1)c1ccccc1 [Compound 104] | > 45 | > 45 | > 45 | 1.87 | 253 | 76.89 | 77.11% | 110.40%
COc1ccc(-c2nnc(C3CCN(C(=O)CNC(=O)c4ccccc4)CC3)o2)cc1OC [Compound 39] | > 45 | > 45 | > 45 | 18.1 | 216 | 77.01 | 79.10% | 110.89%
Cn1c(=O)n(C)c2cc(-c3noc(C4CCN(C(=O)C5CC(=O)N(c6ccccc6)C5)CC4)n3)ccc21 (centres unmarked) [Compound 123] | > 45 | > 45 | > 45 | 0.069 | 343 | 73.59 | 9.69% | 3.12%
Cc1nn(C)c2cc(-c3noc(N4CCN(C(=O)CNC(=O)c5ccccc5)CC4)n3)ccc12 [compound 102] | > 45 | > 45 | > 45 | 0.284 | 411 | – | – | –
Cc1nn(C)c2cc(-c3noc(C4CCN(C(=O)C(CO)N5Cc6ccccc6C5=O)CC4)n3)ccc12 (centres unmarked) [Compound 129] | > 45 | > 45 | > 45 | 0.047 | 360 | 75.60 | 93.05% | 3.25%
CCOc1ncc(-c2noc(C3CCN(C(=O)CN4Cc5ccccc5C4=O)CC3)n2)cc1OC [Compound 131] | > 45 | > 45 | 25.8 | 0.167 | 352 | 96.48 | 98.92% | 39.81%
CCOc1ccc(-c2noc(N3CCC(C(=O)N4CCOC(c5ccccc5)C4)CC3)n2)cc1OC (centres unmarked) [Compound 112] | > 45 | > 45 | > 45 | 0.32 | 258 | 66.76 | 21.21% | 3.16%
CCOc1ccc(-c2noc(C3CCN(C(=O)c4cc(-c5ccccc5)no4)CC3)n2)cc1OC [compound 92] | > 45 | > 45 | > 45 | 2.5 | 187 | – | – | –
CCOc1ccc(-c2noc(C3CCN(C(=O)[C@H]4CN(c5ccccc5)C(=O)O4)CC3)n2)cc1OC [Compound 148] | > 45 | > 45 | > 45 | 13.7 | 258 | 79.55 | 86.53% | 99.90%
COc1ccc(CN2CC(C(=O)N3CCC(c4nc(-c5ccc6c(C)nn(C)c6c5)no4)CC3)CC2=O)c(OC)c1 (centres unmarked) [Compound 124] | > 45 | > 45 | > 45 | 17.7 | 395 | 88.87 | 96.23% | 4.55%
Cc1ccc(-c2nc(C3CCN(C(=O)[C@@H]4CC(=O)N(c5ccc(C)c(C)c5)C4)CC3)no2)cc1 [compound 72] | 27.3 | 33 | > 45 | 12.7 | 35 | – | – | –
CCOc1ccc(-c2noc(C3CCN(C(=O)C(CO)N4Cc5ccccc5C4=O)CC3)n2)cc1OC (centres unmarked) [Compound 128] | > 45 | > 45 | > 45 | 0.252 | 306 | – | 1.89% and 3.32% | 81.43% and 60.60%
Cc1nn(C)c2cc(-c3noc(N4CCN(C(=O)c5cc(-c6ccccc6)no5)CC4)n3)ccc12 [Compound 103] | > 45 | > 45 | > 45 | 2.02 | 75 | 93.33 | 68.60% | 5.27%
CCOc1ccc(-c2noc(C3CCN(C(=O)CNC(=O)c4ccccc4)CC3)n2)cc1Cl [compound 87] | – | – | – | 1.93 | 579 | – | – | –
Cc1nn(C)c2cc(-c3noc(C4CCN(C(=O)CC(C)(C)C)CC4)n3)ccc12 [Compound 263] | – | > 45 | > 45 | – | – | 18.81 | 7.20% | 8.71%
O=C(C1CCN(c2nc(-c3ccccc3)no2)CC1)N1CCOCC1 [Compound 5] | > 45 | 24.5 | > 45 | – | – | – | – | –
Cc1nn(C)c2cc(-c3noc(N4CC5(CN(C(=O)CNC(=O)c6ccccc6)C5)C4)n3)ccc12 [Compound 212] | > 45 | > 45 | > 45 | – | – | 76.79 | 76.28% | 100.82%
Cc1nn(C)c2cc(-c3noc(C4CCN(C(=O)COc5ccccc5)CC4)n3)ccc12 [Compound 266] | – | > 45 | > 45 | – | – | 12.42 | 9.90% | 7.17%
